Consider seven molecules from ChEMBL document CHEMBL1201862, “PubChem BioAssay data set” (2004).

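Values below derive from 48-hour exposures of cells grown in 96-well plates, with endpoints linearly interpolated between the two concentrations bracketing the appropriate inhibition level. GI50 marks 50% less growth.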 The source made the active and inactive calls. Cut-off read from the data, not from the text of the source: active = GI50 up to about 1.1 µM and inactive = higher.

Holding throughout (assay): NCI tumour cell line growth inhibition, 48 h
The subject of test [1] is EKVX.
Test [2] deals with SF-295.
The test system of test [3] is Malme-3M.
Test [4] deals with HT-29.
Test [5] has as its system RPMI-8226.
Test [6] relates to CAKI-1.
For test [7], the system named is SF-268.
Test [8] relates to DU-145.
Test [9] deals with HOP-92.
For test [10], the system named is NCI-H460.
The subject of test [11] is MDA-MB-435.
The test system of test [12] is SK-MEL-5.
For test [13], the system named is RXF 393.
Test [14] relates to OVCAR-5.
In test [15] the test system is HCT-15.
In test [16] the test system is SW-620.
Test [17] has as its system NCI-H226.
Test [18] concerns SK-OV-3.
For test [19], the system named is M14.
Test [20] has as its system SNB-75.

As to `N=C(N)NS(=O)(=O)c1ccc(/N=N/c2c(O)c(C(=O)O)cc3ccccc23)cc1`, the GI50 in [1], in test [2], in [3], in test [4], in [5] and in [6] was > 100 µM (inactive) throughout. Besides, the GI50 in [7], in [8], in test [9], in test [10], in test [11] and in test [12] was > 100 µM (inactive) throughout. Further, the GI50 was > 100 µM (inactive) in test [13]; > 100 µM (inactive) in test [14]; more than 100 µM in test [15]; > 100 µM (inactive) in [16]; > 100 µM (inactive) in [17]; > 100 µM (inactive) in test [18]. Besides, the GI50 in test [19] and in test [20] was > 100 µM (inactive) in each case.
`N=C(N)C(/N=N\c1ccccc1)C(N)=O` (stereo not given): the GI50 in [1] is 95.7 µM (inactive); in [2], 62.8 µM (inactive); in [3], > 100 µM (inactive); in test [4], > 100 µM (inactive); in test [5], > 100 µM (inactive); in test [6], 64.7 µM (inactive). Also, the GI50 in [7] was > 100 µM (inactive); in test [8] it was > 100 µM (inactive); in test [9] it was > 100 µM (inactive); in test [10] it was > 100 µM (inactive); in [11] it was 83.4 µM (inactive); in test [12] it was > 100 µM (inactive). For the same molecule, the GI50 is 87.3 µM (inactive) in test [13]; > 100 µM (inactive) in test [14]; 83.8 µM in test [15]; > 100 µM (inactive) in [16]; > 100 µM (inactive) in [17]; > 100 µM (inactive) in test [18]. The GI50 in [19] and in test [20] was > 100 µM (inactive) throughout.
As to `CN(C)CCNC(=O)C(C)(C)Oc1ccc(C(=O)c2ccc(Cl)cc2)cc1Cl`, the GI50 was 11.2 µM (inactive) in test [1]; 10.6 µM (inactive) in [2]; 5.01 µM (inactive) in test [3]; 2.56 µM (inactive) in [4]; 3.94 µM (inactive) in [5]; 13.1 µM (inactive) in test [6]. Besides, the GI50 in test [7] is 13.7 µM (inactive); in test [8] it was 13.2 µM (inactive); in [9], 6 µM (inactive); in test [10], 7.98 µM (inactive); in test [11] it was 5.6 µM (inactive); in test [12], 2.25 µM (inactive). Besides, the GI50 in test [13] is 7.52 µM (inactive); in test [14] it was 15.1 µM (inactive); in test [15] it was 3.3 µM; in test [16], 5.26 µM (inactive); in test [17], 14.7 µM (inactive); in [18], 15.9 µM (inactive). Besides, the GI50 in test [19] is 2.45 µM (inactive); in test [20], 11.5 µM (inactive).
On to `COc1ccc2c(c1)O[C@@H]1[C@@H](OC3OC(CO)C(O)C(O)C3O)Oc3cc(OC)c(OC)cc3[C@]1(O)C2=O` (stereo not given in full), for which the GI50 in test [1], in test [2], in test [3], in test [4], in [5] and in test [6] was > 100 µM (inactive) in each case. In addition, the GI50 in test [7], in test [8], in test [9], in [10], in test [11] and in test [12] was > 100 µM (inactive) each time. The GI50 is > 100 µM (inactive) in test [13]; > 100 µM (inactive) in [14]; more than 100 µM in [15]; 17.5 µM (inactive) in [16]; 34 µM (inactive) in test [17]; > 100 µM (inactive) in test [18]. The GI50 in [19] and in test [20] was > 100 µM (inactive) in each case.
As for `O=C(O)C1C(C(=O)O)C(C(=O)O)C1C(=O)O` (stereo not given), the GI50 in [1], in test [2], in [3], in [4], in test [5] and in [6] was > 100 µM (inactive) throughout. In addition, the GI50 in test [7], in test [8], in test [9], in test [10], in test [11] and in [12] was > 100 µM (inactive) in each case. The GI50 was > 100 µM (inactive) in test [13]; > 100 µM (inactive) in test [14]; more than 100 µM in test [15]; > 100 µM (inactive) in test [16]; > 100 µM (inactive) in test [17]; > 100 µM (inactive) in test [18]. Also, the GI50 in test [19] and in test [20] was > 100 µM (inactive) throughout.
In the case of `CN(C)c1ccc(C(=O)NCCCCCCC(=O)NO)cc1`, the GI50 is 1.52 µM (inactive) in [1]; 0.326 µM (active) in test [2]; 0.0948 µM (active) in [3]; 0.349 µM (active) in [4]; 0.195 µM (active) in test [5]; 0.465 µM (active) in test [6]. In addition, the GI50 was 0.435 µM (active) in test [7]; 0.335 µM (active) in test [8]; 0.713 µM (active) in [9]; 0.417 µM (active) in test [10]; 0.264 µM (active) in [11]; 0.289 µM (active) in test [12]. The GI50 was 0.303 µM (active) in test [13]; 0.218 µM (active) in [14]; 1.27 µM in [15]; 0.312 µM (active) in test [16]; 2.75 µM (inactive) in test [17]; 0.299 µM (active) in test [18]. For the same molecule, the GI50 in [19] is 0.565 µM (active); in [20] it was 0.251 µM (active).
With `NNc1ccccc1Cl`, the GI50 was > 100 µM (inactive) in test [1]; 27.3 µM (inactive) in [2]; > 100 µM (inactive) in test [3]; > 100 µM (inactive) in test [4]; > 100 µM (inactive) in test [5]; 30.9 µM (inactive) in test [6]. Further, the GI50 was > 100 µM (inactive) in [7]; > 100 µM (inactive) in test [8]; > 100 µM (inactive) in test [9]; 41.4 µM (inactive) in test [10]; > 100 µM (inactive) in test [11]; 30.5 µM (inactive) in test [12]. Also, the GI50 in test [13] is > 100 µM (inactive); in [14] it was > 100 µM (inactive); in test [15] it was more than 100 µM; in test [16], > 100 µM (inactive); in [17], > 100 µM (inactive); in test [18] it was > 100 µM (inactive). The GI50 in test [19] and in test [20] was > 100 µM (inactive) each time.
